Experimental data as given in US20150111852A1, “1-Di(sec-butyl)-phosphinoyl-pentane (dapa-2-5) as a topical agent” (priority 2013, published 2015).

Experiments:
oropharynx [1] = experiment: Sensory effects and cold discomfort of compounds given orally in ODT (general evaluation); type: in vivo, human; conditions: menthol at a dose of 2 mg in an ODT; icilin dose not given
Description: The correlation between a chemical's potency at the TRPM8 receptor (measured by the EC50 μM) and potency to evoke sensory events in the oropharynx is complex.
When a test compound is applied to non-keratinizng bodily surfaces (e.g., oropharyngeal surface), it is possible to characterize the resulting sensations.
The sensations are akin to rapid drinking of cold water mixed and equilibrated with ice chips. The intense cold is further accentuated if the drink is acidified, for example, with lemonade. The sensations of dull and intense cold on the surface of the oropharynx can be described as painful, uncomfortable, and aversive. The term “icy cold” is used to describe these adverse intense cold sensations.
Together, these three types of sensations—“icy cold”, coldness in the chest, and systemic coldness—is termed “cold discomfort”. […] The ideal agent must have a circumscribed site of action, and the intensity of the sensation should not cause “icy cold”, coldness in the chest, or systemic chills.

[2] = molecular target: T1, cloned hTRPM8 channel (encoded by the human TRPM8 gene, expressed in CHO cells) (Homo sapiens, UniProt Q7Z2W7); experiment: TRPM8 agonist FLIPR Fluo-8 calcium assay; type: cell-based; conditions: for EC50: CHO cells, Fluo-8, n=4 replicates
T1 construct: host or cells: CHO cells, stably transfected
T1 sequence (Q7Z2W7 whole entry): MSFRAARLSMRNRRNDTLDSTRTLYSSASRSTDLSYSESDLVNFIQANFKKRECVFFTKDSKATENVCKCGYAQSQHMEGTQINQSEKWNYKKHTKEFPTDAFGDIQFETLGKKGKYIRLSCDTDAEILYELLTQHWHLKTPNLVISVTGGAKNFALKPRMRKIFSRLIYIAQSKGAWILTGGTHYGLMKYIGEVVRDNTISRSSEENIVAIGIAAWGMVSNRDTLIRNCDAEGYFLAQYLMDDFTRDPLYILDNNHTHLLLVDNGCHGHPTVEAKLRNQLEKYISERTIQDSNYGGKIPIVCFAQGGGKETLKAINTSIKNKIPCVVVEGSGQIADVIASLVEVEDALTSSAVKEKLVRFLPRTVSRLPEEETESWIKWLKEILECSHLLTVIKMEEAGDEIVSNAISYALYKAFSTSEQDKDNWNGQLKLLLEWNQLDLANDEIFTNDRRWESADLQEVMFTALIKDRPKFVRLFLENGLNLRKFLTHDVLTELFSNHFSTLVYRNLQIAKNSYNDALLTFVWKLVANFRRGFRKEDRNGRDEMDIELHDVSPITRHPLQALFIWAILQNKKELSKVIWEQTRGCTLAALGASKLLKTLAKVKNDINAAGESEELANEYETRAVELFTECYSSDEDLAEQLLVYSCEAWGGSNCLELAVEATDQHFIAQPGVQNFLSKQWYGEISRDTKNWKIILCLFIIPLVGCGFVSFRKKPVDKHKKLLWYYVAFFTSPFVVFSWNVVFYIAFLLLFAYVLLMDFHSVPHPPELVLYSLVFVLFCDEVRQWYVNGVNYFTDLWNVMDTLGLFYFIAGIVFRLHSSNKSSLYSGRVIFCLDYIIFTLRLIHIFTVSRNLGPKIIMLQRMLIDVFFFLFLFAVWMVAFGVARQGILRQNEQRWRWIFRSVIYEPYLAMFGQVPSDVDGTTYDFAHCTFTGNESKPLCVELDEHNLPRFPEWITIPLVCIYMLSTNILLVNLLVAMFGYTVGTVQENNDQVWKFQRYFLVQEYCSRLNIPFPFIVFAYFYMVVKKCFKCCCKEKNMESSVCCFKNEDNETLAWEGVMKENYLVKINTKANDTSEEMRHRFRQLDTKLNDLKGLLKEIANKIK
Description: The in vitro effects of test compounds were evaluated on cloned hTRPM8 channel (encoded by the human TRPM8 gene, expressed in CHO cells) using a Fluo-8 calcium kit and a Fluorescence Imaging Plate Reader (FLIPR^TETRA™) instrument.
Test compounds and positive control solutions were prepared by diluting stock solutions in a HEPES-buffered physiological saline (HBPS) solution. The test compound and control formulations were loaded in polypropylene or glass-lined 384-well plates, and placed into the FLIPR instrument (Molecular Devices Corporation, Union City, Calif., USA). The test compounds were evaluated at 4 or 8 concentrations with n=4 replicates per determination. […] The test cells were Chinese Hamster Ovary (CHO) cells stably transfected with human TRPM8 cDNAs.
For the FLIPR^TETRA™ assay, cells were plated in 384-well black wall, flat clear-bottom microtiter plates (Type: BD Biocoat Poly-D-Lysine Multiwell Cell Culture Plate) at approximately 30,000 cells per well. Cells were incubated at 37° C. overnight to reach a near confluent monolayer appropriate for use in a fluorescence assay. The test procedure was to remove the growth media and to add 40 μL of HBPS containing Fluo-8 for 30 min at 37° C. 10 μL of test compound, vehicle, or control solutions in HBPS were added to each well and read for 4 min.
Concentration-response data were analyzed via the FLIPR Control software that is supplied with the FLIPR System (MDS-AT) and fitted to a Hill equation of the following form: […]
where: “Base” is the response at low concentrations of test compound; “Max” is the maximum response at high concentrations; “xhalf” is the EC50, the concentration of test compound producing half-maximal activation; and “rate” is the Hill coefficient. Nonlinear least squares fits were made assuming a simple one-to-one binding model.

[3] = tested on: dorsal surface of the tongue; conditions: 6 subjects, filter paper 1×1 cm, 30 sec; cited from earlier work
ASIC3 (acid-sensing) = molecular target: T2, ASIC3 (acid-sensing) (Homo sapiens, UniProt Q9UHC3); experiment: Patch-clamp in transfected cells, ASIC3; type: cell-based; conditions: DAPA-2-5 at 5 μM; positive control amiloride
T2 construct: expressed in transfected cells
T2 sequence (Q9UHC3 1-531): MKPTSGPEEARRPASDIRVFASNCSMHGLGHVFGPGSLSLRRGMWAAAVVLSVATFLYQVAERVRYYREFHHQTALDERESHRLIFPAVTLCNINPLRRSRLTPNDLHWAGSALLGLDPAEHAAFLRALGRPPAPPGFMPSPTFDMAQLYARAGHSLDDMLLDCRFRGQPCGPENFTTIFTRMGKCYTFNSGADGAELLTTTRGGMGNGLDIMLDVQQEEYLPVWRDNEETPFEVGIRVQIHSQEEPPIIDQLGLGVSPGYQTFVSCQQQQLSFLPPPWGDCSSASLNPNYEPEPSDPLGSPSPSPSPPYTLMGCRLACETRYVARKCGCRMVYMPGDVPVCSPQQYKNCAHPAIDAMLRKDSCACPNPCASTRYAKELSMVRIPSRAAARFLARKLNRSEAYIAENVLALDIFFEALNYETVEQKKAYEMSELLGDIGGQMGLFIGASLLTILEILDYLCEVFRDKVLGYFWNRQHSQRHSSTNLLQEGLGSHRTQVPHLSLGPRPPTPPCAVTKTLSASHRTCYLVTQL

[4] = tested on: oral cavity and pharyngeal surfaces; experiment: Sensory activity of ODT-A on volunteers; type: in vivo, human; conditions: 6 to 8 trials per compound
Description: ODT-A was prepared by dissolving the DAPA compound in absolute ethanol, adding a 80% mannitol-20% maltitol mixture of equal weight and then adding an equal volume of distilled water. The mixture was the stirred with a glass rod, and dispensed onto a piece of wax or parchment paper with a disposable plastic pipette. The viscous liquid drop formed was then dried under a heat source for at least 4 hr. The nominal dose of the API in ODT-A ranged from 1 to 3 mg/tablet. The dried tablets weighed on average 150 mg each and when on the dorsal surface of the tongue, rapidly dissolved completely in saliva and coated the oropharyngeal surface. These tablets were suitable for initial pilot studies, but were not uniform in size, were friable, especially in conditions of high ambient humidity, and were not readily amenable to further analytical evaluation.
Sensory Qualities of ODT on the Oral Cavity and Pharyngeal Surfaces The DAPA ODT of Study 2 were evaluated for sensory properties on volunteers. The ODT-A results [see table] are from 6 to 8 trials per compound in several experienced individuals familiar with sensory properties of “cooling agents”. The results of ODT-A will be discussed together with ODT-B and ODT-C.

throat = experiment: Cold water test after ODT-A (cold discomfort); type: in vivo, human; parameters: key: If the subject felt “normal coolness” in the throat, the value was “0”; if the water felt “excessively cold” on the throat, it was rated as “+”; if there was “aching cold/discomfort” on the throat, the ranking was “++”; conditions: ODT-A on the tongue, ice water drunk 10 min later
Description: After application of ODT-A there were sensations associated with heat abstraction of various intensity and duration. Of particular note was the sensation of “icy or painful” cold was felt with some compounds, but the effect was variable. To isolate this sensation more precisely and reduce variability, ODT-A was placed on the tongue and 10 min later the subject was instructed to drink a mouthful of water previously equilibrated with ice chips. If the subject felt “normal coolness” in the throat, the value was “0”; if the water felt “excessively cold” on the throat, it was rated as “+”; and if there was “aching cold/discomfort” on the throat, the ranking was “++”. The term “cold discomfort” was applied compounds that produced “++”, and this phenomenon could now be reliably defined and identified with the cold water test.

oropharynx [5] = experiment: Chili-pepper sauce irritation test; type: in vivo, human; parameters: key: If there was no suppression of the irritant/tickling sensations of the sauce, the value was “0”; if there was some suppression, the value was “+”; if there was complete suppression, then the value was “++.”; conditions: ODT, sauce applied 30 min later; 6 to 8 trials per compound
Excerpt: The “pain” component of inflammation includes irritation, itch, and discomfort and suppression of these endpoints is termed “anti-nociceptive”. To determine if a compound has anti-nociceptive activity, the Inventor has devised a modified capsaicin challenge method to evoke discomfort in the oropharyngx: the chili-pepper sauce irritation test. Chili-pepper sauce placed onto the posterior dorsal surface of the tongue evokes a tickling/irritant sensations in the oropharynx. The sensations associated with the chili pepper sauce are located in the back of the mouth and are clearly recognized and associated with irritation and a desire to clear the throat. In the chili-pepper sauce irritation test, the test compound is delivered using an ODT, as in Study 3, and 30 min later 0.2 to 0.25 mL of the sauce was applied onto the posterior dorsal surface of the tongue (with a syringe or a plastic stick). The chili pepper sauce used here is called Yank Sing® Chili Pepper Sauce (YS Gourmet Productions, Inc., PO Box 26189, San Francisco, Calif. 94126) and is a well-known condiment for use with dim sum (Chinese tea lunch). If there was no suppression of the irritant/tickling sensations of the sauce, the value was “0”; if there was some suppression, the value was “+”; and if there was complete suppression, then the value was “++.” For compounds that gave a ++ score, the irritative signals of the chili-pepper sauce are completely absent, yet the salty taste from the soy sauce of the condiment can still be readily tasted. A “++” result indicated suppression of the irritant effects of chili-pepper sauce. Numerical results are from 6 to 8 trials per compound.

[6] = molecular target: T3, hNav1.7 (sodium channels) (Homo sapiens, UniProt Q15858); experiment: Patch-clamp in transfected cells, hNav1.7; type: cell-based; conditions: DAPA-2-5 at 5 μM; positive control lidocaine
T3 construct: expressed in transfected cells
T3 sequence (Q15858 whole entry): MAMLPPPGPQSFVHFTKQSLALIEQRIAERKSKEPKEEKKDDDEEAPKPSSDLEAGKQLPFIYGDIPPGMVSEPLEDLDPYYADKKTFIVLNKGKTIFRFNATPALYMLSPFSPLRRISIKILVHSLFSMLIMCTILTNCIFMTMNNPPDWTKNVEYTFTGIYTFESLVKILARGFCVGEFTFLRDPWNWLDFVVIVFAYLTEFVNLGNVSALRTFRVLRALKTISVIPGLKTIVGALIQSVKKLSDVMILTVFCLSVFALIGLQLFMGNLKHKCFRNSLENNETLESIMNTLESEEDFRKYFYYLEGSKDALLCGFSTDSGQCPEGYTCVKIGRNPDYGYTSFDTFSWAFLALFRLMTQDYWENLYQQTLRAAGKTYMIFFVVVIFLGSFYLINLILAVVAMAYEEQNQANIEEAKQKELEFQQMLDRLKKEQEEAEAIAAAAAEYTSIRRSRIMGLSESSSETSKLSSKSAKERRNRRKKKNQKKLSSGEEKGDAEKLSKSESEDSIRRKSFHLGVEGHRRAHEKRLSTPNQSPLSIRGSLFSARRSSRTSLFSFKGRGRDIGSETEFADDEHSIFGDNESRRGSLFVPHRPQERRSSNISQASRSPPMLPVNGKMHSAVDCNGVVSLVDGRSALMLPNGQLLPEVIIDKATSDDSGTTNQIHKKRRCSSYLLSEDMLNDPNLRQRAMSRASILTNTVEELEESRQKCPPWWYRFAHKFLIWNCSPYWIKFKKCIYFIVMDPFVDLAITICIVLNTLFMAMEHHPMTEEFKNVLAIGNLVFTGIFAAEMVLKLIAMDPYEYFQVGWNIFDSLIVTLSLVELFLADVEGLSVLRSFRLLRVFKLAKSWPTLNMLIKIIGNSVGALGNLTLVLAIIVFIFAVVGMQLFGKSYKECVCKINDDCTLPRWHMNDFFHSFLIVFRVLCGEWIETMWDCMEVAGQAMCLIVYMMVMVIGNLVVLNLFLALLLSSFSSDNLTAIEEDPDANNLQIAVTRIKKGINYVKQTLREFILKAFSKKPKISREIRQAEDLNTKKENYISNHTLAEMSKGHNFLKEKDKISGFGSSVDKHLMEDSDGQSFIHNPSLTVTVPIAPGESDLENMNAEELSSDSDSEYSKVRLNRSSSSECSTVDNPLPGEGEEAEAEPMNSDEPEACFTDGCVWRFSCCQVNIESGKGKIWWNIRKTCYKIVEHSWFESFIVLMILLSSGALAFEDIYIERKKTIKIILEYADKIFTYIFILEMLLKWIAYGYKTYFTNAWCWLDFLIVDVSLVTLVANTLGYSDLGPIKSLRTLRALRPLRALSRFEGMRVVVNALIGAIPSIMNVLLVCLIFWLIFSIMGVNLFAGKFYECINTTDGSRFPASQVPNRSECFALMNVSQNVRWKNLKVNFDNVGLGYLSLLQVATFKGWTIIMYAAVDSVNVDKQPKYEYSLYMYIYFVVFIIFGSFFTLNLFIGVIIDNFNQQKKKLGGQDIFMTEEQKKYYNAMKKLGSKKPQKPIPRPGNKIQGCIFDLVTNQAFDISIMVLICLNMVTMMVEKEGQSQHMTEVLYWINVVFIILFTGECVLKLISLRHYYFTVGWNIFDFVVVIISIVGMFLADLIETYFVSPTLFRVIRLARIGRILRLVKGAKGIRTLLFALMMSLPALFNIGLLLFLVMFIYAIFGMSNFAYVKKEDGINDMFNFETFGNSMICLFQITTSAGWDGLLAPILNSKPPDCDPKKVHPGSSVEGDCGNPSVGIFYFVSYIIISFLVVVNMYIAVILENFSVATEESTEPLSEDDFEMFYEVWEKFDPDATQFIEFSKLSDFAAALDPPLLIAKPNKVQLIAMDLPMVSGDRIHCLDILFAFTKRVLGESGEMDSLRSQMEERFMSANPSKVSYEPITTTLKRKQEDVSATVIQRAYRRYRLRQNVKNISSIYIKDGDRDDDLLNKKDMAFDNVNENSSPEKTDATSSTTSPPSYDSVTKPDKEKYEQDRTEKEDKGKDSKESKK

mouth and throat = experiment: Sensory activity of ODT-C on volunteers (double-blind, modified ASHRAE scale); type: in vivo, human; conditions: for ODT-C test results (sensation and taste in words) / duration of cooling effect: 1.2 to 1.5 mg per ODT; for ODT-C test results (sensation and taste in words): 4 volunteers; for duration of cooling effect: ODT-C; for ASHRAE equivalent: peak heat abstraction sensation, modified ASHRAE scale neutral [0] to icy cold [-4]
Description: ODT-C. More experiments were conducted to find a smaller tablet, in the range of 40 to 60 mg, with a disintegration of <10 sec. These paraemters might achieve a better pharmacological effect. ODT-B was 100 mg in size and disintegrated in <20 sec. […] For example, to 1.5 g of DAPA-2-5 is added 1.5 g of absolute ethanol, followed by 2.0 g of Neusilin US2. The mixture is shaken or mixed in a Speedmixer at 500 rpm for 1 min. The sample is placed under a heat source and about 2 hr later, the sample size is re-weighed with the expectation that the ethanol has been evaporated and the sample now weights 3.5 g. This powder is free-flowing. • b. a sample of maltitol powder is prepared (Maltisorb® P200 from Roquette). • c. a sample of Prosolv® EasyTab is prepared (JRS Pharma, Rosenburg, Germany). • d. a blend of a. [2.80 g], b. [15.73 g] and c. [31.46 g] is prepared to make 1000 ODT tablets, each weighing 50 mg and containing 1.2 mg of DAPA-2-5. • e. the blend is first shaken by hand, then placed for 2 min in a SpeedMixer at 500 rpm. The blend is poured into the funnel of a New Single Punch Tablet Press Pill Making Machine Maker TDP-1-5 [available from Amazon.com] and the extruded tablets are collected.
ODT-C, described in Study 2, were tested for sensory properties on 4 volunteers, with at least 3 trials per compound and at 1.2 to 1.5 mg per ODT. The ODT was placed on the mid-line posterior dorsal surface of the tongue and sensory effects recorded for 30 min on a standardized form […]. The ODT were coded and administered on a double-blind basis. A modified ASHRAE scale of neutral, slightly cool [-1], cool [-2], cold [-3], and icy cold [-4] was used to rank the peak heat abstraction sensations in the mouth and throat. Other perceived effects, e.g. taste and duration, were also noted.

| SMILES | Cold Discomfort (throat) | Relative Potency to L-menthol [2] | Duration [4] | Onset [4] | Sensory Quality [4] | Chili test (oropharynx [5]) | ODT-C test results (sensation and taste in words) (mouth and throat) | duration of cooling effect (mouth and throat) | ASHRAE equivalent (mouth and throat) | also measured |
| --- | --- | --- | --- | --- | --- | --- | --- | --- | --- | --- |
| CC(C)[C@@H]1CC[C@@H](C)C[C@H]1O [Menthol, L-menthol, reference compound] | – | – | – | – | – | – | – | – | – | sensory effects / side-effects in an ODT (oropharynx [1]): produced chest discomfort; rank in TRPM8 potency among the 21 compounds tested [2]: 16; average threshold for cooling on the tongue [3]: 0.25 µg |
| N=C(N)NC(=O)c1nc(Cl)c(N)nc1N [amiloride, reference compound] | – | – | – | – | – | – | – | – | – | agonist or antagonist activity, ASIC3 (ASIC3 (acid-sensing)): active |
| CCN(CC)CC(=O)Nc1c(C)cccc1C [lidocaine, reference compound] | – | – | – | – | – | – | – | – | – | agonist or antagonist activity, hNav1.7 [6]: active |
| CCCCCP(=O)(CC(C)C)CC(C)C [DAPA-3-1, 1-di(iso-butyl) phosphinoyl-pentane] | 0 | 0.2 | 0 min | – | not active | 0 | – | – | – | Onset (min) [4]: not active; EC50 [2]: 24 µM |
| O=C1NC(c2cccc([N+](=O)[O-])c2)=CCN1c1ccccc1O [icilin, reference compound] | – | – | – | – | – | – | – | – | – | sensory effects / side-effects in an ODT (oropharynx [1]): did not produce cooling in the chest or the desired sensations on the throat; rank in TRPM8 potency among the 21 compounds tested [2]: 4 |

Continued, in another order:

| Cold Discomfort (throat) | Relative Potency to L-menthol [2] | SMILES | Duration [4] | Onset [4] | Sensory Quality [4] | Chili test (oropharynx [5]) | ODT-C test results (sensation and taste in words) (mouth and throat) | duration of cooling effect (mouth and throat) | ASHRAE equivalent (mouth and throat) | also measured |
| --- | --- | --- | --- | --- | --- | --- | --- | --- | --- | --- |
| 0 | 0.9 | CCC(C)P(=O)(CCC(C)C)C(C)CC (stereo not drawn) [DAPA-3-2, 1-Di(sec-butyl) phosphinoyl-3-methyl-butane] | 2 min | 1 min | brief cool | 0 | – | – | – | EC50 [2]: 4.2 µM |
| + | 5.4 | CCCCCCCCP(=O)(C(C)C)C(C)C [DAPA-1-8, 1-Di(isopropyl)-phosphinoyl-octane] | 27 min | 1.2 min | cool | + | strong unpleasant taste | ~15 min | −3 | – |
| 0 | 0.7 | CCCCCP(=O)(C(C)C)C(C)C [DAPA-1-5, 1-Di(isopropyl)-phosphinoyl-pentane] | 5 min | 0.1 min | cool | ++ | brief but intense cool | < 5 min | −2.7 | – |
| 0 | 0.3 | CCCCP(=O)(C(C)CC)C(C)CC (stereo not drawn) [DAPA-2-4, 1-Di(sec-butyl) phosphinoyl-butane] | 3 min | 1 min | brief cool | 0 | pleasant cool, but transient effect | < 5 min | −2.5 | – |
